Results from patent US10351718B2, “Optical filter and imaging device” (AGC Inc., priority 2015, dated 2019).

Columns and labels:
[1] = Absorption characteristic of the dye in dichloromethane; assay type: physicochemical; settings: for λ80 (wavelength with 80% transmittance on shorter wavelength side of λmax) / λmax − λ80: dichloromethane, transmittance at λmax set to 10%; for εA (maximum absorption coefficient in a wavelength of 430 to 550 nm) / εB (maximum absorption coefficient in a wavelength of 670 to 730 nm) / εB/εA / λmax (maximum absorption wavelength): dissolved in dichloromethane
Description: The dyes obtained above were each dissolved in dichloromethane, and using an ultraviolet-visible spectrophotometer (made by Hitachi High Technologies Co., Ltd., U-4100 type), each spectral transmittance curve was measured, from which a maximum absorption wavelength λmax, a wavelength λ80 with which the transmittance becomes 80% on a shorter wavelength side than the maximum absorption wavelength with the transmittance at the maximum absorption wavelength set to 10%, the difference between the maximum absorption wavelength λmax and the wavelength λ80 (λmax−λ80), a maximum absorption coefficient εA in a wavelength of 430 to 550 nm, a maximum absorption coefficient εB in a wavelength of 670 to 730 nm, and a ratio of these (εB/εA) were calculated. Note that measurement of the dye (A9) was not performed because its solubility was low. Further, for each of the following spectral transmittance curves, an ultraviolet-visible spectrophotometer (made by Hitachi High Technologies Co., Ltd., U-4100 type) was used.

[2] = Solubility of dye to resin solution; assay type: physicochemical; settings: for Solubility Evaluation / Solubility: 12.5 mass % polyester resin OKP850 in cyclohexanone:MIBK 1:1, 50° C.; for Solubility: stirred two hours, visual; for Solubility to the resin solution (in words): polyester resin OKP850 solution, 50° C., compared to dyes without branch structure in R^1
Description: Regarding several kinds of the dyes obtained above, solubility to a resin solution was evaluated. In a solubility test, as the resin solution, there was used a solution having a resin concentration of 12.5 mass % that was prepared by dissolving a polyester resin (product name: OKP850 made by Osaka Gas Chemicals Co., Ltd.) in a mixed solvent (cyclohexanone:methyl isobutyl ketone (MIBK)=1:1). Results are illustrated in Table 5 together with the kinds of the used dyes. Incidentally, the temperature of the resin solution in the solubility test was 50° C., the dye was put into the resin solution, the resultant resin solution was stirred for two hours, and whether or not the dye was dissolved was observed visually. Evaluation criteria of the solubility are as follows.
A: Solubility greater than 10 mass %
B: Solubility greater than 5 mass % and 10 mass % or less
C: Solubility 5 mass % or less

SMILES | λ80 (wavelength with 80% transmittance on shorter wavelength side of λmax) [1] | λmax − λ80 [1] | εA (maximum absorption coefficient in a wavelength of 430 to 550 nm) [1] | εB (maximum absorption coefficient in a wavelength of 670 to 730 nm) [1] | εB/εA [1] | λmax (maximum absorption wavelength) [1] | Solubility Evaluation [2] | Solubility [2] | Solubility to the resin solution (in words) [2]
CC1N(C)c2cc(NS(=O)(=O)C(F)(F)F)c(C3=C([O-])C(=c4cc5c(cc4NS(=O)(=O)C(F)(F)F)=[N+](C)C(C)C5(C)C)C3=O)cc2C1(C)C (stereo not shown) [Dye A1-2] | 634 nm | 63 nm | 0.0066 | 1 | 152 | 697 nm | C (5 mass % or less) | 5 mass % | –
CC(C)N1c2cc(NS(=O)(=O)C(F)(F)F)c(C3=C([O-])C(=c4cc5c(cc4NS(=O)(=O)C(F)(F)F)=[N+](C(C)C)C(C)C5(C)C)C3=O)cc2C(C)(C)C1C (stereo not shown) [Dye A1-9] | 651 nm | 52 nm | 0.0082 | 1 | 122 | 703 nm | A (greater than 10 mass %) | 12 mass % | high solubility
CCCCCCCCS(=O)(=O)Nc1cc2c(cc1C1=C([O-])C(=c3cc4c(cc3NS(=O)(=O)CCCCCCCC)=[N+](C(C)C)C(C)C4(C)C)C1=O)C(C)(C)C(C)N2C(C)C (stereo not shown) [Dye A1-15] | 646 nm | 52 nm | 0.0112 | 1 | 89.3 | 698 nm | A (greater than 10 mass %) | 15 mass % | high solubility

Further lines, results first:

λ80 (wavelength with 80% transmittance on shorter wavelength side of λmax) [1] | λmax − λ80 [1] | εA (maximum absorption coefficient in a wavelength of 430 to 550 nm) [1] | εB (maximum absorption coefficient in a wavelength of 670 to 730 nm) [1] | εB/εA [1] | λmax (maximum absorption wavelength) [1] | Solubility Evaluation [2] | Solubility [2] | Solubility to the resin solution (in words) [2] | SMILES
634 nm | 61 nm | 0.0117 | 1 | 85.5 | 695 nm | C (5 mass % or less) | 3 mass % | – | CC1N(C)c2cc(NS(=O)(=O)c3ccc(C(F)(F)F)cc3)c(C3=C([O-])C(=c4cc5c(cc4NS(=O)(=O)c4ccc(C(F)(F)F)cc4)=[N+](C)C(C)C5(C)C)C3=O)cc2C1(C)C (stereo not shown) [Dye A1-8]
650 nm | 52 nm | 0.0111 | 1 | 90.1 | 702 nm | A (greater than 10 mass %) | 12 mass % | high solubility | CC(C)N1c2cc(NS(=O)(=O)c3ccc(C(F)(F)F)cc3)c(C3=C([O-])C(=c4cc5c(cc4NS(=O)(=O)c4ccc(C(F)(F)F)cc4)=[N+](C(C)C)C(C)C5(C)C)C3=O)cc2C(C)(C)C1C (stereo not shown) [Dye A1-16]
656 nm | 49 nm | 0.0143 | 1 | 69.9 | 705 nm | A (greater than 10 mass %) | 12 mass % | high solubility | CCCCCCCCS(=O)(=O)Nc1cc2c(cc1C1=C([O-])C(=c3cc4c(cc3NS(=O)(=O)CCCCCCCC)=[N+](C(C)(C)CC)C(C)C4(C)C)C1=O)C(C)(C)C(C)N2C(C)(C)CC (stereo not shown) [Dye A1-21]
